Experimental data published in ChEMBL document CHEMBL2413072, “Synthesis and in vitro anticancer studies of novel C-2 arylidene congeners of lantadenes” (2013).

What was measured:
Format in all cases: functional
HOP-92 = test: Growth inhibition of human HOP92 cells by sulforhodamine B assay
CCRF-CEM = test: Growth inhibition of human CCRF-CEM cells assessed as cell growth at 10^-8 M by sulforhodamine B assay; settings: read-out: Activity
M14 = test: Growth inhibition of human M14 cells assessed as cell growth at 10^-8 M by sulforhodamine B assay; settings: read-out: Activity
NCI-H522 = test: Growth inhibition of human NCI-H522 cells assessed as cell growth at 10^-7 M by sulforhodamine B assay; settings: read-out: Activity
U-251 = test: Growth inhibition of human U251 cells assessed as cell growth at 10^-7 M by sulforhodamine B assay; settings: read-out: Activity
SF-268 = test: Growth inhibition of human SF268 cells assessed as cell growth at 10^-8 M by sulforhodamine B assay; settings: read-out: Activity
ACHN = test: Growth inhibition of human ACHN cells by sulforhodamine B assay
SK-MEL-5 = test: Growth inhibition of human SK-MEL-5 cells assessed as cell growth at 10^-7 M by sulforhodamine B assay; settings: read-out: Activity
HL-60(TB) = test: Growth inhibition of human HL-60(TB) cells by sulforhodamine B assay
MOLT-4 = test: Growth inhibition of human MOLT4 cells by sulforhodamine B assay
K562 [1] = test: Growth inhibition of human K562 cells assessed as cell growth at 10^-8 M by sulforhodamine B assay; settings: read-out: Activity
DU-145 = test: Growth inhibition of human DU145 cells assessed as cell growth at 10^-8 M by sulforhodamine B assay; settings: read-out: Activity
RXF 393 = test: Growth inhibition of human RXF393 cells by sulforhodamine B assay
UACC-257 = test: Growth inhibition of human UACC257 cells assessed as cell growth at 10^-7 M by sulforhodamine B assay; settings: read-out: Activity
SF-539 = test: Growth inhibition of human SF539 cells assessed as cell growth at 10^-6 M by sulforhodamine B assay; settings: read-out: Activity
NCI-H23 = test: Growth inhibition of human NCI-H23 cells assessed as cell growth at 10^-8 M by sulforhodamine B assay; settings: read-out: Activity
OVCAR-5 = test: Growth inhibition of human OVCAR5 cells assessed as cell growth at 10^-4 M by sulforhodamine B assay; settings: read-out: Activity
Malme-3M [2] = test: Growth inhibition of human MALME-3M cells assessed as cell growth at 10^-4 M by sulforhodamine B assay; settings: read-out: Activity
MDA-MB-231 = test: Growth inhibition of human MDA-MB-231 cells assessed as cell growth at 10^-7 M by sulforhodamine B assay; settings: read-out: Activity
SK-OV-3 = test: Growth inhibition of human SKOV3 cells assessed as cell growth at 10^-4 M by sulforhodamine B assay; settings: read-out: Activity
[3] = Growth inhibition of human Hs 578T cells assessed as cell growth at 10^-8 M by sulforhodamine B assay; settings: read-out: Activity
SR = test: Growth inhibition of human SR cells assessed as cell growth at 10^-4 M by sulforhodamine B assay; settings: read-out: Activity
NCI-H322M [4] = test: Growth inhibition of human NCI-H322M cells by sulforhodamine B assay
NCI-H226 = test: Growth inhibition of human NCI-H226 cells assessed as cell growth at 10^-8 M by sulforhodamine B assay; settings: read-out: Activity
SF-295 [5] = test: Growth inhibition of human SF295 cells by sulforhodamine B assay
SF-295 [6] = test: Growth inhibition of human SF295 cells assessed as cell growth at 10^-8 M by sulforhodamine B assay; settings: read-out: Activity
K562 [7] = test: Growth inhibition of human K562 cells assessed as cell growth at 10^-4 M by sulforhodamine B assay; settings: read-out: Activity
OVCAR-4 [8] = test: Growth inhibition of human OVCAR4 cells assessed as cell growth at 10^-6 M by sulforhodamine B assay; settings: read-out: Activity
UACC-62 = test: Growth inhibition of human UACC62 cells assessed as cell growth at 10^-8 M by sulforhodamine B assay; settings: read-out: Activity
LOX IMVI = test: Growth inhibition of human LOXIMVI cells by sulforhodamine B assay
[9] = Growth inhibition of human NCI-ADR-RES cells assessed as cell growth at 10^-7 M by sulforhodamine B assay; settings: read-out: Activity
KM12 = test: Growth inhibition of human KM12 cells assessed as cell growth at 10^-8 M by sulforhodamine B assay; settings: read-out: Activity
OVCAR-4 [10] = test: Growth inhibition of human OVCAR4 cells assessed as cell growth at 10^-8 M by sulforhodamine B assay; settings: read-out: Activity
Malme-3M [11] = test: Growth inhibition of human MALME-3M cells assessed as cell growth at 10^-8 M by sulforhodamine B assay; settings: read-out: Activity
UO-31 = test: Growth inhibition of human UO31 cells assessed as cell growth at 10^-4 M by sulforhodamine B assay; settings: read-out: Activity
HCT-116 [12] = test: Growth inhibition of human HCT116 cells assessed as cell growth at 10^-4 M by sulforhodamine B assay; settings: read-out: Activity
HCT-116 [13] = test: Growth inhibition of human HCT116 cells assessed as cell growth at 10^-8 M by sulforhodamine B assay; settings: read-out: Activity
NCI-H322M [14] = test: Growth inhibition of human NCI-H322M cells assessed as cell growth at 10^-7 M by sulforhodamine B assay; settings: read-out: Activity
HCT-15 = test: Growth inhibition of human HCT15 cells assessed as cell growth at 10^-6 M by sulforhodamine B assay; settings: read-out: Activity
[15] = read-out: LC50 (the source's name)
[16] = read-out: pLC50 (the source's name) (converted)

CC(C)=CC(=O)O[C@@H]1CC(C)(C)C[C@H]2C3=CC[C@@H]4[C@@]5(C)CCC(=O)C(C)(C)[C@@H]5CC[C@@]4(C)[C@]3(C)CC[C@@]12C(=O)O
GI50 (HOP-92; read-out: GI50): 1700 nM | CC50 (HOP-92; [15]): > 100 µM | TGI (HOP-92; read-out: TGI): 7.02 µM | GI50 (HOP-92; read-out: pGI50 (converted)): 1700 nM | CC50 (HOP-92; [16]): > 100 µM | TGI (HOP-92; read-out: pTGI (converted)): 7.08 µM | growth at 0.01 µM (CCRF-CEM): 104% | growth at 0.01 µM (M14): 98% | growth at 0.1 µM (NCI-H522): 92% | growth at 0.1 µM (U-251): 90% | growth at 0.01 µM (SF-268): 96% | GI50 (ACHN; read-out: GI50): 2.99 µM | CC50 (ACHN; [15]): > 100 µM | TGI (ACHN; read-out: TGI): 27.9 µM | GI50 (ACHN; read-out: pGI50 (converted)): 3.02 µM | CC50 (ACHN; [16]): > 100 µM | TGI (ACHN; read-out: pTGI (converted)): 28.2 µM | growth at 0.1 µM (SK-MEL-5): 91% | GI50 (HL-60(TB); read-out: GI50): 2210 nM | CC50 (HL-60(TB); [15]): > 100 µM | TGI (HL-60(TB); read-out: TGI): 5.38 µM | GI50 (HL-60(TB); read-out: pGI50 (converted)): 2190 nM | CC50 (HL-60(TB); [16]): > 100 µM | TGI (HL-60(TB); read-out: pTGI (converted)): 5.37 µM | GI50 (MOLT-4; read-out: GI50): 2920 nM | CC50 (MOLT-4; [15]): > 100 µM | TGI (MOLT-4; read-out: TGI): 20.6 µM | GI50 (MOLT-4; read-out: pGI50 (converted)): 2950 nM | CC50 (MOLT-4; [16]): > 100 µM | TGI (MOLT-4; read-out: pTGI (converted)): 20.4 µM | growth at 0.01 µM (K562 [1]): 116% | growth at 0.01 µM (DU-145): 105% | GI50 (RXF 393; read-out: GI50): 3.31 µM | CC50 (RXF 393; [15]): 63.5 µM | TGI (RXF 393; read-out: TGI): 16.3 µM | GI50 (RXF 393; read-out: pGI50 (converted)): 3.31 µM | CC50 (RXF 393; [16]): 63.1 µM | TGI (RXF 393; read-out: pTGI (converted)): 16.2 µM | growth at 0.1 µM (UACC-257): 93% | growth at 1 µM (SF-539): 90% | growth at 0.01 µM (NCI-H23): 94% | growth at 100 µM (OVCAR-5): -39% | growth at 100 µM (Malme-3M [2]): -5% | growth at 0.1 µM (MDA-MB-231): 93% | growth at 100 µM (SK-OV-3): 15% | growth at 0.01 µM [3]: 96% | growth at 100 µM (SR): -15% | GI50 (NCI-H322M [4]; read-out: GI50): 2870 nM | LC50 (50% lethal concentration) (NCI-H322M [4]; read-out: LC50): > 100 µM | TGI (NCI-H322M [4]; read-out: TGI): 19.9 µM | GI50 (NCI-H322M [4]; read-out: pGI50 (converted)): 2880 nM | LC50 (50% lethal concentration) (NCI-H322M [4]; read-out: pLC50 (converted)): > 100 µM | TGI (NCI-H322M [4]; read-out: pTGI (converted)): 20 µM | growth at 0.01 µM (NCI-H226): 95% | GI50 (SF-295 [5]; read-out: GI50): 1700 nM | CC50 (SF-295 [5]; [15]): 72.7 µM | TGI (SF-295 [5]; read-out: TGI): 11.9 µM | GI50 (SF-295 [5]; read-out: pGI50 (converted)): 1700 nM | CC50 (SF-295 [5]; [16]): 72.4 µM | TGI (SF-295 [5]; read-out: pTGI (converted)): 12 µM | growth at 0.01 µM (SF-295 [6]): 86% | growth at 100 µM (K562 [7]): 15% | growth at 1 µM (OVCAR-4 [8]): 83% | growth at 0.01 µM (UACC-62): 102% | GI50 (LOX IMVI; read-out: GI50): 6.32 µM | CC50 (LOX IMVI; [15]): > 100 µM | TGI (LOX IMVI; read-out: TGI): 29.3 µM | GI50 (LOX IMVI; read-out: pGI50 (converted)): 6.31 µM | CC50 (LOX IMVI; [16]): > 100 µM | TGI (LOX IMVI; read-out: pTGI (converted)): 29.5 µM | growth at 0.1 µM [9]: 95% | growth at 0.01 µM (KM12): 101% | growth at 0.01 µM (OVCAR-4 [10]): 99% | growth at 0.01 µM (Malme-3M [11]): 94% | growth at 100 µM (UO-31): -13% | growth at 100 µM (HCT-116 [12]): -6% | growth at 0.01 µM (HCT-116 [13]): 98% | growth at 0.1 µM (NCI-H322M [14]): 90% | growth at 1 µM (HCT-15): 55%
